Test results: US9057929B2, “Quinolinium single crystals for use in nonlinear optics” (AJOU UNIVERSITY INDUSTRY-ACADEMIC COOPERATION FOUNDATION, priority 2011, dated 2015)
Like-named read-outs stand apart in the source and are kept apart here.

Assays:
[1] = Thermal properties by DSC and TGA at a scanning rate of 10° C./min (thermal weight-loss temperature Ti); assay type: physicochemical; details: for Ti (thermal weight-loss temperature), second number of the Tm/Ti cell: intercept of leading edge of weight loss with baseline
Experimental: As results of measurement of thermal properties of the quinolinium derivative according to the present invention using differential scanning calorimetry (DSC) and thermogravimetric analysis (TGA) at a scanning rate of 10° C./min, the thermal weight-loss temperature Ti was estimated as a temperature at the intercept of the leading edge of the weight loss by the baseline of TGA scans.

Solubility in methanol = assay: Solubility in methanol
From the text: Meanwhile, the solubility in methanol of the quinolinium derivative according to the present invention is illustrated in (a) of FIG. 6. […] The solid line in the graph is based on the known Van't Hoff thermodynamic equilibrium equation using an ideal solution.

Compound | Ti (thermal weight-loss temperature), second number of the Tm/Ti cell ([1]; TGA, 10° C./min) | solubility in methanol (Solubility in methanol) [g/100 g methanol] | thermal stability of the crystal (FIG. 2) ([1]; TGA, 10° C./min) [°C] | thermal stability of the crystal (FIG. 2) [1] | solubility in methanol as a reaction solvent (Solubility in methanol; methanol, temperature not given) [g/100 g methanol]
CC1(C)CC(C=Cc2ccc(O)cc2)=CC(=C(C#N)C#N)C1 [OH1, 2-(3-(4-hydroxystyryl)-5,5-dimethylcyclohex-2-enylidene)malononitrile, reference compound] | 212/325 °C | – | – | – | –
2-(4-hydroxy-3-methoxystyryl)-1-methylquinolinium 4-methoxylbenzenesulfonate [HMQ-MBS] | 265/291 °C | 0.56 | – | – | –
CN(C)c1ccc(C=Cc2cc[n+](C)cc2)cc1.Cc1ccc(S(=O)(=O)[O-])cc1 [DAST, N,N-dimethylamino-N′-methylstilbazolium 4-methylbenzenesulfonate, reference compound] | 250/250 °C | – | 260 | – | –
COc1cc(C=Cc2ccc3ccccc3[n+]2C)ccc1O.Cc1ccc(S(=O)(=O)[O-])cc1 [HMQ-T, 2-(4-hydroxy-3-methoxystyryl)-1-methylquinolinium 4-methylbenzenesulfonate] | 273/297 °C | 0.89 | – | exceeding 290 °C | –
COc1cc(C=Cc2ccc3ccccc3[n+]2C)ccc1O.[I+] [HMQ-I, 2-(4-hydroxy-3-methoxystyryl)-1-methylquinolinium iodine] | – | – | – | – | 0.14
